US10472334B2, “Small molecules for inhibiting male fertility” (The University of North Carolina at Chapel Hill, priority 2014, dated 2019)
Where two headings read alike, the source gives them in different places.

What was measured:
[1] = In vitro absorption, Caco-2 permeability and recovery; type: in vitro ADME; settings: human, Caco-2; read-out: permeability to Caco-2 cells
Method: (§1) The in vitro absorption was measured using methods described in Hidalgo, I. J. et al. (1989), Gastroenterology, 96: 736-749.
(§2) The apparent permeability coefficient (Papp) of the test compound was calculated as follows:
(§3) [formula] where VR is the volume of the receiver chamber. CR, end is the concentration of the test compound in the receiver chamber at the end time point, Δt is the incubation time and A is the surface area of the cell monolayer. CD, mid is the calculated mid-point concentration of the test compound in the donor side, which is the mean value of the donor concentration at time 0 minute and the donor concentration at the end time point. CR, mid is the mid-point concentration of the test compound in the receiver side, which is one half of the receiver concentration at the end time point. Concentrations of the test compound were expressed as peak areas of the test compound.
(§4) The recovery of the test compound was calculated as follows: […]
(§5) where VD and VR are the volumes of the donor and receiver chambers, respectively. CD,end is the concentration of the test compound in the donor sample at the end time point. CR,end is the concentration of the test compound in the receiver sample at the end time point. CD0 is the concentration of the test compound in the donor sample at time zero. Concentrations of the test compound are expressed as peak areas of the test compound. […]

[2] = system: Caco-2 cells; experiment: as above; type: in vitro ADME
Method: as §1, §2, §3, §4, §5

[3] = In vitro toxicity, cell viability; type: cell-based
Method: The percent of control activity was calculated by comparing the fluorescence reading in the presence of test compound to that in the absence of a test (control) compound. Subsequently, the percent of inhibition was calculated by subtraction of the percent of control value from 100. IC50 values were determined by non-linear regression analysis of the concentration-response curves. These parameters are obtained by Hill equation curve fitting. See, for example, Nociari, M. M. et al. (1998), J. Immunol. Meth., 213: 157-167.

[4] = target: T1, recombinant human EPPIN (Homo sapiens, UniProt O95925); experiment: AlphaScreen epitope assay: inhibition of anti-EPPIN (S21C, C-terminal domain) antibody binding to histidine-tagged recombinant human EPPIN; settings: Figure 2; TZ4_121 concentration-response, percent of control value vs. log concentration; His-tagged rhEPPIN (E. coli, lacks part of N-terminal secretory signal) on NTA-donor beads, anti-EPPIN S21C on protein A-acceptor beads; spread printed +/- 10.4
T1 construct: His-tagged (FLAG tag also stated); E. coli M15[pREP-4], Ni-NTA purified; AlphaScreen with anti-EPPIN S21C antibody
Text: Two assays for high throughput screening (HTS) of compounds have been established and validated. In one embodiment, these assays are based on an adaptation of the AlphaScreen™ assay developed by PerkinElmer (Waltham, Mass.). In the AlphaScreen™ (amplified luminescent proximity homogeneous assay) assay donor and acceptor beads (˜200 nm) are employed to hold interacting protein molecules. When the interacting protein molecules bind (for example EPPIN {on the donor bead} and anti-EPPIN {on the acceptor bead}), singlet state oxygen molecules diffuse from the donor bead to the acceptor bead (˜4 μsec) and fluorophores subsequently emit light at 520-620 nm. In the primary compound screen, histidine-tagged recombinant human EPPIN is attached to NTA-donor beads and anti-EPPIN (S21C; against the EPPIN C-terminal domain) is attached to protein A-acceptor beads. This epitope specific assay gives strong and stable binding between EPPIN and the antibody. […]

T1 sequence (O95925 22-133): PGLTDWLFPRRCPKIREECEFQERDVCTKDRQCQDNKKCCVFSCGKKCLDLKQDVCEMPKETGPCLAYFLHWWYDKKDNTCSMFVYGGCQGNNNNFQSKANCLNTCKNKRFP

CCOC(=O)CSc1nc(NNC(=O)OC)nc(Nc2ccc(NC(=O)OC)c(O)c2)n1 [TZ4_121, [4-(3-Hydroxy-4-methoxycarbonylamino-phenylamino)-6-(N′methoxycarbonyl-hydrazino)-1,3,5-triazin-2-ylsulfanyl]-acetic acid ethyl ester]
Papp [1]: 0.2 ×10⁻⁶ cm/s
Recovery from the permeability assay [2]: 93%
IC50 ([3]; FIG. 2, read-out: cell viability IC50): ~17 µM
IC50 ([3]; read-out: In vitro toxicology IC50): ~20 µM
IC50 [4]: 38.2 µM
